Experimental data reported in patent publication US8431565B2 (priority 2007, dated 2013).

Biological target: T1, rat CB2 receptor (rCB2) (Rattus norvegicus, UniProt Q9QZN9)
T1 sequence (Q9QZN9 1-360): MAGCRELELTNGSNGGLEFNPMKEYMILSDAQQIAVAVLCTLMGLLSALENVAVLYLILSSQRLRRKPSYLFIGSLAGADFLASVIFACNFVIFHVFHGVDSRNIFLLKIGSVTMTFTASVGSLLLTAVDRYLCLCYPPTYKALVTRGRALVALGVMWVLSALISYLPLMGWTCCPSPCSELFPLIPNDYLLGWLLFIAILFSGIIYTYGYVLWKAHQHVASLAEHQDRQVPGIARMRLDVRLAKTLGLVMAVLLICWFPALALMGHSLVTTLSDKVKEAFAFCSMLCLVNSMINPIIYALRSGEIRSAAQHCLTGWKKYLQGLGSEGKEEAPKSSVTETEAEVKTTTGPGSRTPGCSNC

Compound: CNC(=O)[C@@H](NC(=O)c1nc(-c2ccccc2)n2c1CN(S(=O)(=O)c1ccccc1[N+](=O)[O-])CC2)C(C)(C)C [Compound 97, (S)-N-(3,3-dimethyl-1-(methylamino)-1-oxobutan-2-yl)-7-(2-nitrophenylsulfonyl)-3-phenyl-5,6,7,8-tetrahydroimidazo[1,5-a]pyrazine-1-carboxamide]
- EC50: 10 to 100 nM

Compound: CNC(=O)[C@@H](NC(=O)c1nc(-c2ccccc2)n2c1CN(S(=O)(=O)c1ccccc1F)CC2)C(C)(C)C [Compound 98, (S)-N-(3,3-dimethyl-1-(methylamino)-1-oxobutan-2-yl)-7-(2-fluorophenylsulfonyl)-3-phenyl-5,6,7,8-tetrahydroimidazo[1,5-a]pyrqazine-1-carboxamide]
- EC50: 10 to 100 nM

Compound: CNC(=O)[C@@H](NC(=O)c1nc(-c2ccccc2)n2c1CN(S(=O)(=O)C1CC1)CC2)C(C)(C)C [Compound 100, (S)-7-(cyclopropylsulfonyl)-N-(3,3-dimethyl-1-(methylamino)-1-oxobutan-2-yl)-3-phenyl-5,6,7,8-tetrahydroimidazo[1,5-a]pyrazine-1-carboxamide]
- EC50: 10 to 100 nM

Compound: CC(C)(C)CNC(=O)c1nc(-c2ccccc2)n2c1CN(S(=O)(=O)c1ccc(F)cc1)CC2 [Compound 103, 7-(4-fluorophenylsulfonyl)-N-neopentyl-3-phenyl-5,6,7,8-tetrahydroimidazo[1,5-a]pyrazine-1-carboxamide]
- EC50: 10 to 100 nM

Compound: CC(C)(C)CNC(=O)c1nc(-c2ccccc2)n2c1CN(S(=O)(=O)c1ccccc1)CC2 [Compound 104, N-neopentyl-3-phenyl-7-(phenylsulfonyl)-5,6,7,8-tetrahydroimidazo[1,5-a]pyrazine-1-carboxamide]
- EC50: 10 to 100 nM

Compound: CNC(=O)[C@@H](NC(=O)c1nc(-c2ccccc2)n2c1CN(S(=O)(=O)c1ccc(Cl)cc1)CC2)C(C)(C)C [Compound 106, (S)-7-(4-chlorophenylsulfonyl)-N-(3,3-dimethyl-1-(methylamino)-1-oxobutan-2-yl)-3-phenyl-5,6,7,8-tetrahydroimidazo[1,5-a]pyrazine-1-carboxamide]
- EC50: 10 to 100 nM

Compound: CNC(=O)[C@@H](NC(=O)c1nc(-c2ccccc2)n2c1CN(S(=O)(=O)c1ccc(C(F)(F)F)cc1)CC2)C(C)(C)C [Compound 107, (S)-N-(3,3-dimethyl-1-(methylamino)-1-oxobutan-2-yl)-3-phenyl-7-(4-(trifluoromethyl)phenylsulfonyl)-5,6,7,8-tetrahydroimidazo[1,5-a]pyrazine-1-carboxamide]
- EC50: 10 to 100 nM

Compound: CNC(=O)[C@@H](NC(=O)c1nc(-c2ccccc2)n2c1CN(S(=O)(=O)c1ccc(C#N)cc1)CC2)C(C)(C)C [Compound 108, (S)-7-(4-cyanophenylsulfonyl)-N-(3,3-dimethyl-1-(methylamino)-1-oxobutan-2-yl)-3-phenyl-5,6,7,8-tetrahydroimidazo[1,5-a]pyrazine-1-carboxamide]
- EC50: 10 to 100 nM

Compound: CNC(=O)[C@@H](NC(=O)c1nc(-c2ccsc2)n2c1CN(S(=O)(=O)c1ccc(F)cc1)CC2)C(C)(C)C [Compound 109, (S)-N-(3,3-dimethyl-1-(methylamino)-1-oxobutan-2-yl)-7-(4-fluorophenylsulfonyl)-3-(thiophen-3-yl)-5,6,7,8-tetrahydroimidazo[1,5-a]pyrazine-1-carboxamide]
- EC50: 10 to 100 nM

Compound: CCS(=O)(=O)N1CCn2c(-c3ccccc3)nc(C(=O)NC3C4(C)CCC(C4)C3(C)C)c2C1 (stereo not shown) [Compound 112, 7-(ethylsulfonyl)-3-phenyl-N-(1,3,3-trimethylbicyclo[2.2.1]heptan-2-yl)-5,6,7,8-tetrahydroimidazo[1,5-a]pyrazine-1-carboxamide]
- EC50: 10 to 100 nM

Compound: CC12CCC(C1)C(C)(C)C2NC(=O)c1nc(-c2ccccc2)n2c1CN(C(=O)C1CC1)CC2 (stereo not shown) [Compound 119, 7-(cyclopropanecarbonyl)-3-phenyl-N-(1,3,3-trimethyl-bicyclo[2.2.1]heptan-2-yl)-5,6,7,8-tetrahydroimidazo[1,5-a]pyrazine-1-carboxamide]
- EC50: 10 to 100 nM

Compound: CC(C)(C)C(=O)N1CCn2c(-c3ccccc3)nc(C(=O)NC3C4(C)CCC(C4)C3(C)C)c2C1 (stereo not shown) [Compound 123, 3-phenyl-7-pivaolyl-N-(1,3,3-trimethylbicyclo[2.2.1]heptan-2-yl)-5,6,7,8-tetrahydroimidazo[1,5-a]pyrazine-1-carboxamide]
- EC50: 10 to 100 nM

Compound: CC(C)CCNC(=O)c1nc(-c2ccc(Cl)cc2)n2c1CN(C(=O)C1CC1)CC2 [Compound 131, 3-(4-chlorophenyl)-7-(cyclopropanecarbonyl)-N-isopentyl-5,6,7,8-tetrahydroimidazo[1,5-a]pyrazine-1-carboxamide]
- EC50: 10 to 100 nM

Compound: C[C@@H](NC(=O)c1nc(-c2ccccc2)n2c1CN(C(=O)C1CC1)CC2)C1CCCCC1 [Compound 132, (R)-N-(1-cyclohexylethyl)-7-(cyclopropanecarbonyl)-3-phenyl-5,6,7,8-tetrahydroimidazo[1,5-a]pyrazine-1-carboxamide]
- EC50: 10 to 100 nM

Compound: C[C@@H](NC(=O)c1nc(-c2ccccc2)n2c1CN(C(=O)C(C)(C)C)CC2)C1CCCCC1 [Compound 133, (R)-N-(1-cyclohexylethyl)-3-phenyl-7-pivaloyl-5,6,7,8-tetrahydroimidazo[1,5-a]pyrazine-1-carboxamide]
- EC50: 10 to 100 nM

Compound: C[C@@H](NC(=O)c1nc(-c2ccccc2)n2c1CN(C(=O)C1CCOC1)CC2)C1CCCCC1 (stereo partly drawn) [Compound 139, N-((R)-1-cyclohexylethyl)-3-phenyl-7-(tetrahydrofuran-3-carbonyl)-5,6,7,8-tetrahydroimidazo[1,5-a]pyrazine-1-carboxamide]
- EC50: 10 to 100 nM

Compound: O=C(NC1CCCCC1)c1nc(-c2ccccc2)n2c1CN(CC1CCOC1)CC2 (stereo not shown) [Compound 141, N-cyclohexyl-3-phenyl-7-((tetrahydrofuran-3-yl)methyl)-5,6,7,8-tetrahydroimidazo[1,5-a]pyrazine-1-carboxamide]
- EC50: 10 to 100 nM

Compound: CC(C)CN1CCn2c(-c3ccccc3)nc(C(=O)NC3C4(C)CCC(C4)C3(C)C)c2C1 (stereo not shown) [Compound 142, 7-isobutyl-3-phenyl-N-(1,3,3-trimethylbicyclo[2.2.1]heptan-2-yl)-5,6,7,8-tetrahydroimidazo[1,5-a]pyrazine-1-carboxamide]
- EC50: 10 to 100 nM

Compound: CC12CCC(C1)C(C)(C)C2NC(=O)c1nc(-c2ccccc2)n2c1CN(CCO)CC2 (stereo not shown) [Compound 143, 7-(2-hydroxyethyl)-3-phenyl-N-(1,3,3-trimethylbicyclo[2.2.1]heptan-2-yl)-5,6,7,8-tetrahydroimidazo[1,5-a]pyrazine-1-carboxamide]
- EC50: 10 to 100 nM

Compound: CCN1CCn2c(-c3ccccc3)nc(C(=O)NC3C4(C)CCC(C4)C3(C)C)c2C1 (stereo not shown) [Compound 144, 7-ethyl-3-phenyl-N-(1,3,3-trimethylbicyclo[2.2.1]heptan-2-yl)-5,6,7,8-tetrahydroimidazo[1,5-a]pyrazine-1-carboxamide]
- EC50: 0.1 to 10 nM

Compound: CC(C)CN1CCn2c(-c3ccccc3)nc(C(=O)N[C@@H](C)c3ccccc3)c2C1 [Compound 145, (S)-7-isobutyl-3-phenyl-N-(1-phenylethyl)-5,6,7,8-tetrahydroimidazo[1,5-a]pyrazine-1-carboxamide]
- EC50: 10 to 100 nM

Compound: CNC(=O)[C@@H](NC(=O)c1nc(-c2ccccc2)n2c1CN(CC(C)C)CC2)C(C)(C)C [Compound 148, (S)-N-(3,3-dimethyl-1-(methylamino)-1-oxobutan-2-yl)-7-isobutyl-3-phenyl-5,6,7,8-tetrahydroimidazo[1,5-a]pyrazine-1-carboxamide]
- EC50: 10 to 100 nM
